The numbers were not newly measured in patent publication US20180235992A1, “IMMUNOTHERAPIES FOR MALIGNANT, NEURODEGENERATIVE AND DEMYELINATING DISEASES BY THE USE OF TARGETED NANOCARRIERS” (RODOS BIOTARGET GMBH, priority 2015, published 2018), which cites them from elsewhere.

One data set deals with pancreatic cancer. The settings on record: given intravenously, equal dose.
Data set [1] has as its system human acute myelogenous leukemia cell line HL-60.
The test system of data set [2] is multiple myeloma cell lines.
The subject of data set [3] is Fibroblast Growth Factor-2-induced angiogenic response. The following applies: in-vivo.
Data set [4] deals with Alzheimer's β-amyloid fibrils. The following applies: in vitro.
Data set [5] concerns squamous cell carcinoma head and neck cell lines.
A further data set deals with human melanoma cells. The settings on record: Fas Receptor/Caspase-8 pathway independent of p53.
For the next data set, the system named is pancreatic cancer cells. The following applies: modulating miR-200 and miR-21 expression.
The subject of data set [6] is human vascular endothelial cells. The following applies: in vitro.
In a further data set the test system is human pancreatic cancer. The settings on record: mouse, in vivo.
Another data set has as its system pancreatic cancer model. The following applies: in vivo.

For `COc1cc(/C=C/C(=O)CC(=O)/C=C/c2ccc(O)c(OC)c2)ccc1O` [curcumin], the “tumor weights and volumes” value in the data set on pancreatic cancer is listed as “failed to cause a significant reduction”. The apoptosis entry (in [1]; in data set [5]; in the data set with human melanoma cells) was “induces apoptosis” in each case. Besides, the “expression of NF-κB, Bcl-2 and Bcl-XL” value in data set [2] is recorded as “suppresses expression”. In addition, the angiogenic response result in data set [3] is “inhibits”. Besides, in data set [4], the anti-amyloidogenic effects entry was “potent anti-amyloidogenic effects”. Moreover, the gemcitabine sensitivity result in the data set with pancreatic cancer cells is given as “induces gemcitabine sensitivity”. Also, the proliferation entry in [6] is “suppresses the proliferation”. The proliferation and apoptosis entry in the data set on mantle cell lymphoma was “suppress proliferation, and induce apoptosis”. The “tumor growth and angiogenesis” value with human pancreatic cancer is “inhibits tumor growth and angiogenesis”. For the same molecule, the “antitumor activity of gemcitabine” value with pancreatic cancer model was “potentiates the antitumor activity of gemcitabine”.

In the case of [DLys(6)]-LHRH-curcumin, in the data set on pancreatic cancer, the “tumor weights and volumes” value was “caused a reduction in tumor weights and volumes”.
